This note sets out measurements from ChEMBL document CHEMBL1177696, “Heat shock protein 70 (hsp70) as an emerging drug target” (J Med Chem, 2010).

pEC50, pIC50, pKd: −log10 of the molar value. Values after ≈ are worked out from the molar mass of the structure shown. Bounds are passed on as bounds.

The nature of data set [1]: Inhibition of APIase activity of Escherichia coli MC4100 DNAK.
Data set [2] relates to Escherichia coli. In words: Antibacterial activity against Escherichia coli MC4100. It is filed as functional.
Data set [3] has as its system Escherichia coli. In words: Antibacterial activity against Escherichia coli. It is filed as functional.
Data set [4] has as its system Yersinia pseudotuberculosis. Nature of the data set: Antibacterial activity against Yersinia pseudotuberculosis. The format is functional.
A short description of data set [5]: Binding affinity to Escherichia coli DNAK substrate binding domain by isothermal titration assay.
Data set [6] has as its system Escherichia coli. In words: Ratio of ciprofloxacin MIC to compound MIC for Escherichia coli. The format is functional.
Data set [7] is described as follows: Cytotoxicity against human erythrocytes assessed as hemolysis after 30 mins by spectrometric analysis. The format is cell-based. Particulars: Erythrocyte, 0.5 h.
Data set [8] deals with Escherichia coli. In words: Inhibition of Escherichia coli DNAK at 150 uM.
Data set [9] in a line: Inhibition of Escherichia coli DNAK by luciferase-refolding assay.
Data set [10] is described as follows: Antiproliferative activity against human colon cancer cells. The format is functional, cell-based. Particulars: Cancer cell lines.
Data set [11] is described as follows: Antiproliferative activity against human bladder cancer cells. It is filed as functional, cell-based. Particulars: Cancer cell lines.
Data set [12] in a line: Antiproliferative activity against human breast cancer cells. It is filed as functional, cell-based. To be noted: Cancer cell lines.
For data set [13], the target named is Heat shock cognate 71 kDa protein (Homo sapiens) (UniProt P11142). Nature of the data set: Binding affinity to HSC70 EEVD domain by mass spectroscopy.
A short description of data set [14]: Binding affinity to HSP90 EEVD domain by mass spectroscopy.
In data set [15] the test system is Saccharomyces cerevisiae. Nature of the data set: Induction of ATPase activity of yeast cytosolic HSC70.
Data set [16] is described as follows: Alpha half life in renal transplant patient. It is filed as ADME, organism-based. Particulars: human, in vivo; read-out: alphat1/2.
Data set [17] in a line: Terminal half life in renal transplant patient. Particulars: human, in vivo; read-out: beta t1/2 (converted). It is filed as ADME, organism-based.
Data set [18] concerns L1210. Nature of the data set: Antitumor activity against mouse L1210 cells xenografted in CDF1 mouse assessed as log reduction in tumor burden. It is filed as functional.

Sequence of Heat shock cognate 71 kDa protein (Homo sapiens) (P11142 2-646 limits assumed): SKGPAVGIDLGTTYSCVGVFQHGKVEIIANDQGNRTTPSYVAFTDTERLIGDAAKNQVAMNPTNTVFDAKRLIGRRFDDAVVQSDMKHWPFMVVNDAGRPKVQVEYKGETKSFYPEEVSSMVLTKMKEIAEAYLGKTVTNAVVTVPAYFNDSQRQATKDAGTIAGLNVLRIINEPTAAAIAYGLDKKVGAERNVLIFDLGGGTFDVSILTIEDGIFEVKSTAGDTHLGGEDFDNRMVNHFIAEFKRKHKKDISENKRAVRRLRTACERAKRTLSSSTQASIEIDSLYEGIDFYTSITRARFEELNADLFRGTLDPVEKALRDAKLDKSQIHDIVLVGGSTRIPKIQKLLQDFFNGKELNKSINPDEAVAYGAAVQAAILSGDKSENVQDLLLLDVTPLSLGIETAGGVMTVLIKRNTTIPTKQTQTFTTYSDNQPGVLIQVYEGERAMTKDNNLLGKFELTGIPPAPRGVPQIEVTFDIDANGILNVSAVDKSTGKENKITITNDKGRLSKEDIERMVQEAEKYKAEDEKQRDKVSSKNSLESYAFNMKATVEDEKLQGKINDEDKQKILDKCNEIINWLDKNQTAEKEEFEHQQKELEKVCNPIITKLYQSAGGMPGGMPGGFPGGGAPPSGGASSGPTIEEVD

As to `CCCCCCCCCCCCCCCCC(=O)NCc1ccc(C(=O)N[C@H](C(=O)O)[C@@H](C)CC)cc1`, the pIC50 in [1] is 5.92. In data set [2], this compound showed an MIC of 180 µg/mL (≈ 348 µM).
With `Cc1ccc(NC(=O)c2ccc([N+](=O)[O-])o2)cc1`, the MIC in data set [3] was 10 µM (≈ 2.46 µg/mL); in [4] it was < 12 µM.
For `O=C(NCc1ccccc1F)c1cccs1`, the pKd in data set [5] is 4.15. Besides, the MIC in [3] and in data set [4] was 10 µM (≈ 2.35 µg/mL) each time.
As to H-GRPDKPRPYLPRPRPPRPVRI-OH, in data set [6], the Ratio is recorded as 4.
On to `CCCC/C=C\CCCCCCCCC(=O)NCc1ccc(C(=O)N[C@H](C(=O)O)[C@@H](C)CC)cc1`, for which, in data set [1], the pIC50 was 4.44. Besides, the minimum inhibitory concentration (MIC) in [2] came out at 280 µg/mL (≈ 575 µM). For the same compound, in [7], the EC50 was > 1500 µg/mL.
In data set [1], `CCCCCCCCCCCCCCC(=O)NCc1ccc(C(=O)N[C@H](C(=O)O)[C@@H](C)CC)cc1` had a pIC50 of 5.30. Inhibition of growth in [2] (MIC) required 380 µg/mL (≈ 778 µM).
As to `O=C(Nc1ccc2[nH]ccc2c1)c1cccs1`, in data set [5], the pKd is 4.90. Further, the MIC in [3] and in data set [4] was 10 µM (≈ 2.42 µg/mL) throughout.
`CC1=C(C(=O)OCc2ccccc2)C(c2ccc(C3CCCCC3)cc2)NC(=O)N1CCCCCC(=O)O` (configuration not stated): in data set [8], the inhibition was determined as 80%.
`COC(=O)C1=C(CCc2ccccc2)NC(=O)NC1c1ccc([N+](=O)[O-])cc1` (configuration not stated) had a pEC50 in [9] of 5.40.
Turning to `CCn1c(=O)/c(=C2\Sc3ccccc3N2C)s/c1=C\c1cccc[n+]1CC`, the pIC50 in [10], in data set [11] and in data set [12] was 6.00 each time.
As for `N=C(N)NCCCCCCC(=O)N[C@@H](O)C(=O)NCCCCNCCCN`, the Activity stood at 5 µM in [13], 5 µM in data set [14] and 20% in [15]. In addition, the results for the half-life in data set [16] and in [17] were 5 min and 2 h, respectively. Besides, the FC in data set [18] stood at 4.
